From PubChem BioAssay AID248 (DTP/NCI, 2004) come the findings set out here.

This experiment deals with L1210 leukemia ip in BDF1 mice, survival T/C. In words: NCI In Vivo Anticancer Drug Screen. Data for tumor model L1210 Leukemia (intraperitoneal) in B6D2F1 (BDF1) mice. The conditions noted are these: endpoint: mean survival time, higher = longer survival. Put shortly:
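Antitumor effect is assessed in tumor-bearing animals. Survival in the compound arm is compared with a vehicle-dosed control arm and expressed as their quotient.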

Where [1] appears, read: dose: 100.0 mg/kg/injection, schedule: Q04DX003 (ip), vehicle: saline.
Where [2] appears, read: dose: 200.0 mg/kg/injection, schedule: Q04DX003 (ip), vehicle: saline.
Setting [3] is: dose: 400.0 mg/kg/injection, schedule: Q04DX003 (ip), vehicle: saline.
[4] abbreviates: dose: 50.0 mg/kg/injection, schedule: Q01DX001 (ip), vehicle: saline.
Setting [5] is: dose: 100.0 mg/kg/injection, schedule: Q01DX001 (ip), vehicle: saline.
Setting [6] is: dose: 200.0 mg/kg/injection, schedule: Q01DX001 (ip), vehicle: saline.
[7] abbreviates: dose: 400.0 mg/kg/injection, schedule: Q01DX001 (ip), vehicle: saline.
The mark [8] stands for this setting: dose: 200.0 mg/kg/injection, schedule: Q04DX002 (ip), vehicle: saline with Tween-80.
[9] abbreviates: dose: 100.0 mg/kg/injection, schedule: Q04DX003 (ip), vehicle: Klucel (hydroxypropylcellulose) (HPC).
Where [10] appears, read: dose: 200.0 mg/kg/injection, schedule: Q04DX003 (ip), vehicle: Klucel (hydroxypropylcellulose) (HPC).
Setting [11] is: dose: 400.0 mg/kg/injection, schedule: Q04DX003 (ip), vehicle: Klucel (hydroxypropylcellulose) (HPC).
The mark [12] stands for this setting: dose: 100.0 mg/kg/injection, schedule: Q01DX009 (ip), vehicle: Klucel (hydroxypropylcellulose) (HPC).
The mark [13] stands for this setting: dose: 200.0 mg/kg/injection, schedule: Q01DX009 (ip), vehicle: Klucel (hydroxypropylcellulose) (HPC).
Setting [14] is: dose: 50.0 mg/kg/injection, schedule: Q01DX001 (ip), vehicle: carboxymethylcellulose (CMC).
The mark [15] stands for this setting: dose: 100.0 mg/kg/injection, schedule: Q01DX001 (ip), vehicle: carboxymethylcellulose (CMC).
The mark [16] stands for this setting: dose: 200.0 mg/kg/injection, schedule: Q01DX001 (ip), vehicle: carboxymethylcellulose (CMC).
The mark [17] stands for this setting: dose: 400.0 mg/kg/injection, schedule: Q01DX001 (ip), vehicle: carboxymethylcellulose (CMC).

“And” between values parts separate entries of the source, which are not always exact repeats. Identical values can stand only once. Toxic doses and inconclusive results are not listed.

Regarding `O=C(NCCCOc1ccccc1)NCCc1ccc(Cl)c(Cl)c1`, the T/C reads like this: (dose: 100.0 mg/kg/injection, schedule: Q01DX001 (ip), vehicle: gum acacia) 99 % of control; (dose: 200.0 mg/kg/injection, schedule: Q01DX001 (ip), vehicle: gum acacia) 94 % of control; (dose: 400.0 mg/kg/injection, schedule: Q01DX001 (ip), vehicle: gum acacia) 91 % of control.
For `O=C(O)C(Cc1ccc(O)cc1)c1ccccc1` (stereo not given), the T/C reads like this: under setting [1], 98 % of control; under setting [2], 94 % of control; under setting [3], 96 % of control.
For the compound `CO/C=C(\C)C(=O)NC(=O)NC1CCC(CO)C1` (stereo not given), the T/C by setting is: (dose: 100.0 mg/kg/injection, schedule: Q01DX001 (ip), vehicle: other) 96 % of control; (dose: 200.0 mg/kg/injection, schedule: Q01DX001 (ip), vehicle: other) 107 % of control; (dose: 400.0 mg/kg/injection, schedule: Q01DX001 (ip), vehicle: other) 98 % of control.
Turning to `COCC/C(COC)=N/N`, the T/C runs as follows: under setting [4], 103 % of control; under setting [5], 103 % of control; under setting [6], 122 % of control.
Regarding `C=CCOC(=O)OCc1ccccc1`, the T/C is 92 % of control (dose: 222.0 mg/kg/injection, schedule: Q01DX Z (ip), vehicle: methylcellulose (MC)) and 89 % of control (dose: 333.0 mg/kg/injection, schedule: Q01DX Z (ip), vehicle: methylcellulose (MC)).
For the compound `CCOC(=O)C1=C(Nc2ccccc2)CSC1`, the T/C (dose: 25.0 mg/kg/injection, schedule: Q01DX009 (ip), vehicle: water) is 100 % of control; the T/C (dose: 50.0 mg/kg/injection, schedule: Q01DX009 (ip), vehicle: water) is 101 % of control; the T/C (dose: 100.0 mg/kg/injection, schedule: Q01DX009 (ip), vehicle: water) was 94 % of control; the T/C (dose: 200.0 mg/kg/injection, schedule: Q01DX009 (ip), vehicle: water) was 102 % of control; the T/C (dose: 400.0 mg/kg/injection, schedule: Q01DX009 (ip), vehicle: water) was 89 % of control.
For `O=C(O)C1(Cl)C2(Cl)C(Cl)=CC3(Cl)C(Cl)(C(=O)O)C2(Cl)C31Cl` (stereo not given), the T/C is, setting by setting: under setting [4], 108 % of control; under setting [5], 103 % of control; under setting [6], 101 % of control; under setting [7], 97 % of control.
As to `Cc1ccc(C(C)(C)CP(c2ccccc2)c2ccccc2)cc1`, the T/C reads like this: (dose: 25.0 mg/kg/injection, schedule: Q04DX002 (ip), vehicle: saline with Tween-80) 95 % of control; (dose: 50.0 mg/kg/injection, schedule: Q04DX002 (ip), vehicle: saline with Tween-80) 92 % of control; under setting [8], 89 % of control.
Regarding `N#Cc1ccc(N2CCCc3ccccc32)c([N+](=O)[O-])c1`, the T/C by setting is: under setting [9], 107 % of control; under setting [10], 92 % of control; under setting [11], 91 % of control.
In the case of `CCCCOC(=O)C1(C)OC1c1ccccc1` (stereo not given), the T/C is 101 % of control (dose: 100.0 mg/kg/injection, schedule: Q04DX002 (ip), vehicle: saline); 89 % of control (dose: 200.0 mg/kg/injection, schedule: Q04DX002 (ip), vehicle: saline); 101 % of control (dose: 400.0 mg/kg/injection, schedule: Q04DX002 (ip), vehicle: saline).
Regarding `CCCCCCCNC(=O)Nc1cccc(Cl)c1C`, the T/C (dose: 25.0 mg/kg/injection, schedule: Q04DX003 (ip), vehicle: Klucel (hydroxypropylcellulose) (HPC)) is 103 % of control; the T/C (dose: 50.0 mg/kg/injection, schedule: Q01DX009 (ip), vehicle: Klucel (hydroxypropylcellulose) (HPC)) is 101 % of control; the T/C (dose: 50.0 mg/kg/injection, schedule: Q04DX003 (ip), vehicle: Klucel (hydroxypropylcellulose) (HPC)) is 101 % of control; the T/C under setting [12] is 89 % of control; the T/C under setting [9] was 95 % of control and 101 % of control; the T/C under setting [13] is 93 % of control.
As for `CCC(CC)(CC#N)C1CCCCC1`, the T/C runs as follows: under setting [14], 98 % of control; under setting [15], 104 % of control; under setting [16], 98 % of control; under setting [17], 104 % of control.
Consider `CN(C)C(=S)N1C(=O)C2C3CCC(O3)C2C1=O` (stereo not given), for which the T/C is 102 % of control (dose: 3.13 mg/kg/injection, schedule: Q01DX009 (ip), vehicle: saline with Tween-80); 98 % of control (dose: 6.25 mg/kg/injection, schedule: Q01DX009 (ip), vehicle: saline with Tween-80); 106 % of control (dose: 6.25 mg/kg/injection, schedule: Q04DX002 (ip), vehicle: saline with Tween-80); 87 % of control (dose: 12.5 mg/kg/injection, schedule: Q04DX002 (ip), vehicle: saline with Tween-80).
For the compound `COc1ccc(C=C2C3C=CC2C2C(=O)OC(=O)C32)cc1` (stereo not given), the T/C is, setting by setting: under setting [12], 101 % of control; under setting [9], 99 % of control; under setting [13], 97 % of control; under setting [10], 99 % of control; under setting [11], 89 % of control.
For the compound `COc1ccc(CCN2CCCC2C(=O)O)cc1OC` (stereo not given), the T/C is, setting by setting: under setting [1], 96 % of control; under setting [2], 94 % of control; under setting [3], 100 % of control.
Consider `COc1cc(C(=O)Cl)cc(OC)c1OC(C)=O`, for which the T/C is, setting by setting: under setting [5], 93 % of control; under setting [6], 89 % of control; under setting [7], 91 % of control.
For `C/C=C(\Nc1ccc([N+](=O)[O-])cc1[N+](=O)[O-])C(=O)OC`, in that order: 101 % of control, 98 % of control and 101 % of control.
`O=C1OC(c2cccc(Cl)c2)=N/C1=C\c1cc(Br)ccc1O`: the T/C is 89 % of control (dose: 100.0 mg/kg/injection, schedule: Q04DX002 (ip), vehicle: saline with Tween-80); 96 % of control under setting [8]; 89 % of control (dose: 400.0 mg/kg/injection, schedule: Q04DX002 (ip), vehicle: saline with Tween-80).
Consider `CCOC(=O)/C(=C\c1ccccc1)C(C)=O`, for which the T/C by setting is: under setting [9], 101 % of control; under setting [10], 92 % of control; under setting [11], 104 % of control.
On to `CCCCn1ccnc1C`, for which the T/C reads like this: (dose: 6.25 mg/kg/injection, schedule: Q04DX003 (ip), vehicle: saline) 113 % of control and 90 % of control; (dose: 12.5 mg/kg/injection, schedule: Q04DX003 (ip), vehicle: saline) 93 % of control and 107 % of control; (dose: 25.0 mg/kg/injection, schedule: Q04DX003 (ip), vehicle: saline) 113 % of control and 265 % of control and 89 % of control; (dose: 50.0 mg/kg/injection, schedule: Q04DX003 (ip), vehicle: saline) 106 % of control and 289 % of control.
Regarding `O=P(C1CCCC1)(C1CCCC1)C1CCCC1`, the T/C reads like this: (dose: 100.0 mg/kg/injection, schedule: Q01DX001 (ip), vehicle: saline with Tween-80) 100 % of control; (dose: 200.0 mg/kg/injection, schedule: Q01DX001 (ip), vehicle: saline with Tween-80) 94 % of control; (dose: 400.0 mg/kg/injection, schedule: Q01DX001 (ip), vehicle: saline with Tween-80) 92 % of control.
In the case of `NC(=O)c1ccccc1NC(=O)Nc1cc(C(F)(F)F)ccc1Cl`, the T/C was 96 % of control under setting [12]; 86 % of control under setting [13]; 97 % of control (dose: 400.0 mg/kg/injection, schedule: Q01DX009 (ip), vehicle: Klucel (hydroxypropylcellulose) (HPC)).
Turning to `CN(C)c1ccc(N=C2C(c3ccccc3)=CC(c3ccccc3)=C2c2ccccc2)cc1`, the T/C was 89 % of control under setting [14], 91 % of control under setting [15], 94 % of control under setting [16] and 97 % of control under setting [17].
`NC(CSS(=O)(=O)O)=NCc1ccsc1`: the T/C reads like this: (dose: 6.25 mg/kg/injection, schedule: Q01DX009 (ip), vehicle: Klucel (hydroxypropylcellulose) (HPC)) 96 % of control; (dose: 12.5 mg/kg/injection, schedule: Q01DX009 (ip), vehicle: Klucel (hydroxypropylcellulose) (HPC)) 104 % of control; (dose: 12.5 mg/kg/injection, schedule: Q04DX002 (ip), vehicle: Klucel (hydroxypropylcellulose) (HPC)) 100 % of control; (dose: 25.0 mg/kg/injection, schedule: Q01DX009 (ip), vehicle: Klucel (hydroxypropylcellulose) (HPC)) 101 % of control; (dose: 25.0 mg/kg/injection, schedule: Q04DX002 (ip), vehicle: Klucel (hydroxypropylcellulose) (HPC)) 95 % of control.
